PMC12661400, “Oral bioavailable ITRI-148 degrades androgen receptor variants and overcomes antiandrogen resistance in advanced prostate cancer” (Neoplasia (New York, N.Y.), 2025)

What was measured:
Assay type in all cases: cell-based
AR = AR degradation by immunoblotting in CRPC cells; details: 10 μM
Procedure: Cell lysis, Western blotting, and AR ubiquitination were performed as described in [17]. Primary antibodies: AR (Millipore 06-680), AR-V7 (RevMAb Biosciences 31-1109-00), PSA (ABclonal A4355), NKX3-1 (Cell Signaling Technology 92998), GAPDH (Cell Signaling Technology 2118) and β-Actin (Sigma-Aldrich A5441).
Fig. 1 ITRI-148 induces degradation of both AR and AR-V7 proteins in CRPC cells. […] (B) Expression of Flag-tagged AR-V7 in 293T cells following ITRI-148 treatment. Cells transiently expressing Flag-AR-V7 were pretreated with 50 μg/mL cycloheximide for 1 hour, then exposed to ITRI-148 at the indicated concentrations for 8 hours. AR-V7 expression was detected using an anti-Flag antibody. (C) Representative immunoblots showing AR protein levels in VCaP and CWR22Rv1 cells after 48 hours of ITRI-148 treatment. An N-terminal AR antibody was used to detect both full-length AR and LBD-truncated variants (AR-V(ΔLBD)) in CWR22Rv1 cells, while AR-V7 was detected using an AR-V7-specific antibody. DC₅₀ values were calculated from normalized band intensities, and Dₘₐₓ represents the maximal degradation achieved at 10 μM ITRI-148. (D) Immunofluorescence staining of AR after 24 or 48 hours of ITRI-148 treatment, detected using an N-terminal AR antibody. […] (F) Western blot analysis of ectopically expressed wild-type (WT) and mutant Myc-tagged AR in DU145 cells following 24 hours of treatment with 10 μM ITRI-148. Quantified AR levels are as indicated. TEXT PRINTED IN THE PICTURE: (C) ITRI-148: DC50 (μM) AR CWR22Rv1: 1.23 ± 1.86; DC50 (μM) AR VCaP: 0.05 ± 0.03; DC50 (μM) AR-V7 CWR22Rv1: 1.20 ± 0.92; DC50 (μM) AR-V7 VCaP: 0.02 ± 0.02; Dmax (%) AR CWR22Rv1: 65.02 ± 19.91; Dmax (%) AR VCaP: 80.49 ± 5.61; Dmax (%) AR-V7 CWR22Rv1: 72.10 ± 3.15; Dmax (%) AR-V7 VCaP: 91.36 ± 2.05

CWR22Rv1 = experiment: MTT cell viability, 7 days; details: 168 h
Procedure: (§1) Cells were seeded in 96-well plates and treated with drugs the next day. After 7 days, viability was assessed using MTT assay.
(§2) (C) Western blot analysis of AR and AR-V7 in C4-2B and C4-2B/MDVR cells after 48-hour ITRI-148 treatment. […] DEGs were determined relative to DMSO or pLKO.1 vector control. […] RPL13A was used for normalization. […] AR, AR-V7, and PSA expression in the drug-treated cells were detected across treatment timepoints.

LNCaP95 = experiment: MTT cell viability, 7 days; details: LNCaP-95, 168 h
Procedure: as §1, §2

LNCaP = experiment: MTT cell viability, 7 days; details: Homo sapiens, 168 h
Procedure: as §1, §2

VCaP = experiment: MTT cell viability, 7 days; details: Homo sapiens, 168 h
Procedure: as §1, §2

Compound | degradation of the AR proteins (western blot) (AR) | IC50 (CWR22Rv1) | IC50 (LNCaP95) | IC50 (LNCaP) | IC50 (VCaP)
CN1C(=O)CCC(N2C(=O)c3cccc(NCC(=O)N4CCC(N5CCC(C#Cc6ccc(C7CCN(C8=Nn9c(nnc9C(F)(F)F)CC8)CC7)cc6)CC5)CC4)c3C2=O)C1=O (centres unmarked) [inactive analog of ITRI-148] | failed to degrade the AR proteins | – | – | – | –
N#Cc1ccc(O[C@H]2CC[C@H](NC(=O)c3ccc(N4CCC(CN5CCN(c6cc7c(cc6F)C(=O)N(C6CCC(=O)NC6=O)C7=O)CC5)CC4)nn3)CC2)cc1Cl (some centres unmarked) [ARV-110, reference compound] | – | > 10 µM | > 10 µM | 0.74 µM | > 10 µM
